Assay results taken from US20230263729A1, “POLY(ETHYLENE GLYCOL)-BLOCK-POLY(PROPYLENE SULFIDE) NANOCARRIER PLATFORM FOR ENHANCED EFFICACY OF IMMUNOSUPPRESSIVE AGENTS” (Northwestern University, priority 2019, published 2023).

Legend:
[1] = tested on: allogeneic islet graft; experiment: Intraportal fully-MHC mismatched allogeneic islet transplantation; format: in vivo, C57BL/6J mice; conditions: standard dosage: 11 daily injections, 1 mg rapamycin per kg
Procedure: Allogeneic Islet Transplantation—Diabetes was induced via streptozotocin (IP; 190 mg/kg) injection five days prior to transplantation and confirmed via hyperglycemia (blood glucose>400 mg/dl). Starting the day prior to transplantation, mice were injected with PBS, PS, rapamycin, or rPS (N=3 per group) at 1 mg/kg (or equivalent) in accordance with a standard dosage (11 doses, given daily) or a low dosage (6 doses, given every 3rd day). On the day of transplantation, islets were isolated from Balb/c mice via common bile duct cannulation and pancreas distension with collagenase. Islets isolated from two donors (˜200 mouse islets, ˜175 IEQ) were transplanted to C57B6/J recipients via the portal vein. Body weight and blood glucose concentration were monitored closely for 100 days post-transplantation. Intraperitoneal glucose tolerance test (IPGTT) was performed one-month post transplantation. The animals were fasted for 16 hours before being injected intraperitoneally with 2 g dextrose (200 g/L; Gibco) per kg body weight. Blood glucose concentrations were measured at 0, 15, 30, 60- and 120-minutes post-injection.

[2] = tested on: hair follicles at injection site; experiment: Alopecia assessment (dorsal photos, H&E histology); format: in vivo, C57BL/6J mice
Excerpt: Alopecia Assessment—Dorsal photos were taken weekly to assess for alopecia. At 100-days post-transplantation, the mice were euthanized and skin samples were excised in the dorsal region at the subcutaneous injection site. Skin samples were placed in cassettes, fixed in 4% paraformaldehyde, and embedded in paraffin. Tissue blocks were sectioned at a thickness of […] and stained with hematoxylin and eosin (H&E). Digital images were taken on a Nikon microscope.

[3] = tested on: genes associated with rapamycin side effects; experiment: Single cell RNA sequencing of spleen macrophages and CD4+ regulatory T cells; format: in vivo, C57BL/6J mice; conditions: 1 mg/kg s.c. 11 days
Procedure: Single Cell RNA Sequencing—Healthy C57BL/6J mice were subjected to a “standard dosage regime.” Animals were injected subcutaneously for 11 days with rapamycin (in 0.2% CMC) or rPS at a dose of 1 mg/kg. Equivalent dose of 1×PBS or PS were injected as controls. After 11 days, the mice were sacrificed, and the liver and spleen were excised. The organs were processed as was done for flow cytometry. CD4+ regulatory T cells and macrophages were isolated using magnetic sorting (MojoSort; BioLegend). Briefly, cells were first incubated in a cocktail of PE anti-mouse CD169 and PE anti-mouse F4/80 antibodies (BioLegend). After washing, incubation in anti-PE nanobeads (BioLegend) occurred. Macrophages were magnetically sorted from non-macrophages. The non-macrophages cell fraction was then incubated in mouse CD4+ T cell isolation biotin-antibody cocktail (BioLegend) and sorted. The CD4+ T cell fraction was then incubated in APC anti-mouse CD25 antibody (BioLegend), followed by washing, incubation in anti-APC nanobeads (BioLegend) and sorting. RNA was isolated from separated macrophages and CD4+ regulatory T cells using R-Neasy Mini Kit with DNAse digestion (Qiagen), Samples were frozen and shipped to Admera Health where they underwent library preparation using the Lexogen 3′ mRNA-Seq Library Prep Kit FWD HT (Lexogen) and were sequenced on an Illumina sequencer (HiSeq 2500 2×150 bp). For each pair, Read 2 was discarded and only Read 1 was used for downstream data analysis. Sequencing quality was analyzed with FastQC v0.11.5^47 and reads were trimmed and filtered with Trimmomatic v0.3948. One sample from the spleen T cell PBS treatment group and one sample from the spleen T cell rapamycin treatment group were discarded due to low sequencing quality. Reads were aligned with STAR v2.6.0a 49 to the GRCm38.p6 mouse reference genome primary assembly using the GRCm38.p6 mouse reference primary comprehensive gene annotation (https://www.gencodegenes.org/mouse/). Quantification and differential expression was performed with Cuffdiff from Cufflinks v2.2.150-52 again using the GRCm38.p6 mouse reference primary comprehensive gene annotation and a 0.05 FDR. Detailed settings for each software are included in Table S1.

[4] = tested on: red blood cells; conditions: in vivo; cited from earlier work
[5] = in vivo; cited from earlier work

hair follicles, histological analysis ([2]; low dosage): some mature follicles present
injection site alopecia ([2]; low dosage): alopecia was reduced
injection site alopecia ([2]; mice treated with free rapamycin): experienced injection site alopecia
hair follicles, histological analysis ([2]; standard dosage): Only immature follicles
Compound: CO[C@H]1C[C@@H]2CC[C@@H](C)[C@@](O)(O2)C(=O)C(=O)N2CCCC[C@H]2C(=O)O[C@H]([C@H](C)C[C@@H]2CC[C@@H](O)[C@H](OC)C2)CC(=O)[C@H](C)/C=C(\C)[C@@H](O)[C@@H](OC)C(=O)[C@H](C)C[C@H](C)/C=C/C=C/C=C/1C [rapamycin]
mice remaining normoglycemic 100 days post transplantation [1]: 71%
ACAA1 Fold Change ([3]; Spleen CD4+ Regulatory T Cells): −3.833
CD79A Fold Change ([3]; Spleen CD4+ Regulatory T Cells): −24
CRKL Fold Change ([3]; Spleen CD4+ Regulatory T Cells): 7.387
MZB1 Fold Change ([3]; Spleen CD4+ Regulatory T Cells): −24
PIK3R1 Fold Change ([3]; Spleen CD4+ Regulatory T Cells): −12
IGF1 Fold Change ([3]; Spleen Macrophages): −9.108
MGAT1 Fold Change ([3]; Spleen Macrophages): 5.0747
ZDHHC3 Fold Change ([3]; Spleen Macrophages): −8.143
partition into red blood cells [4]: 95%
patients impacted by alopecia [5]: approximately 10%
